Reference: patent US12077503B2, “Substituted cyclic amides and their use as herbicides” (FMC CORPORATION, priority 2015, dated 2024)

Assays:
Format in all cases: in vivo
[1] = test system: barnyardgrass (Echinochloa crus-galli); test: Test G Pre-Emergence Protocol; details: Echinochloa crus-galli, pre-emergence, 312 h, evaluated after 13 days; for pest or weed control at 15.625 g/ha: 15.625 g ai/ha, read-out: Barnyard grass damage rating (100=total damage to plant; 0=no damage to plant); for pest or weed control at 62.5 g/ha: 62.5 g ai/ha, 100=total damage to plant, 0=no damage to plant, read-out: plant damage rating, Barnyardgrass; for pest or weed control at 250 g/ha: 250 g ai/ha, read-out: Barnyardgrass damage rating (100=total damage to plant; 0=no damage to plant)
In short: (§1)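 One day after sowing, pots are treated with a spray of test compound formulated in acetone/water 50:50 plus 0.5% Tween 20, giving 15.625, 62.5 or 250 g/ha. Evaluation on a 0–100 damage scale follows 13 days of glasshouse growth.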

[2] = test system: redroot pigweed (Amaranthus retroflexus); test: Test G Pre-Emergence Protocol; details: Amaranthus retroflexus, pre-emergence, 312 h, evaluated after 13 days; for pest or weed control at 15.625 g/ha: 15.625 g ai/ha; for pest or weed control at 15.625 g/ha / pest or weed control at 250 g/ha: read-out: Pigweed, Redroot damage rating (100=total damage to plant; 0=no damage to plant); for pest or weed control at 62.5 g/ha: 62.5 g ai/ha, 100=total damage to plant, 0=no damage to plant, read-out: plant damage rating, Pigweed, Redroot; for pest or weed control at 250 g/ha: 250 g ai/ha
In short: as §1

[3] = test system: giant foxtail (Setaria faberi); test: Test G Pre-Emergence Protocol; details: Setaria faberi, pre-emergence, 312 h, evaluated after 13 days; for pest or weed control at 15.625 g/ha: 15.625 g ai/ha; for pest or weed control at 15.625 g/ha / pest or weed control at 250 g/ha: read-out: Foxtail, Giant damage rating (100=total damage to plant; 0=no damage to plant); for pest or weed control at 62.5 g/ha: 62.5 g ai/ha, 100=total damage to plant, 0=no damage to plant, read-out: plant damage rating, Foxtail, Giant; for pest or weed control at 250 g/ha: 250 g ai/ha
In short: as §1

[4] = test system: ivy-leaved morning glory (Ipomoea hederacea); test: Test G Pre-Emergence Protocol; details: Ipomoea, pre-emergence, 312 h, evaluated after 13 days; for pest or weed control at 15.625 g/ha: 15.625 g ai/ha, read-out: Morning-glory, Ivy-leaved damage rating (100=total damage to plant; 0=no damage to plant); for pest or weed control at 62.5 g/ha: 62.5 g ai/ha, 100=total damage to plant, 0=no damage to plant, read-out: plant damage rating, Morningglory, Ivy-leaved; for pest or weed control at 250 g/ha: 250 g ai/ha, read-out: Morningglory, Ivy-leaved damage rating (100=total damage to plant; 0=no damage to plant)
In short: as §1

[5] = test system: corn (Zea mays); test: Test G Pre-Emergence Protocol; details: Zea mays, pre-emergence, 312 h, evaluated after 13 days; for plant injury at 15.625 g/ha: 15.625 g ai/ha; for plant injury at 15.625 g/ha / plant injury at 250 g/ha: read-out: Corn damage rating (100=total damage to plant; 0=no damage to plant); for plant injury at 62.5 g/ha: 62.5 g ai/ha, 100=total damage to plant, 0=no damage to plant, read-out: plant damage rating, Corn; for plant injury at 250 g/ha: 250 g ai/ha
In short: as §1

[6] = test system: velvetleaf (Abutilon theophrasti); test: Test G Pre-Emergence Protocol; details: Abutilon theophrasti, pre-emergence, 312 h, evaluated after 13 days; for pest or weed control at 15.625 g/ha: 15.625 g ai/ha; for pest or weed control at 15.625 g/ha / pest or weed control at 250 g/ha: read-out: Velvetleaf damage rating (100=total damage to plant; 0=no damage to plant); for pest or weed control at 62.5 g/ha: 62.5 g ai/ha, 100=total damage to plant, 0=no damage to plant, read-out: plant damage rating, Velvetleaf; for pest or weed control at 250 g/ha: 250 g ai/ha
In short: as §1

[7] = test system: barnyardgrass (Echinochloa crus-galli); test: Test G Post-Emergence Protocol; details: Echinochloa crus-galli, post-emergence, 312 h; for pest or weed control at 15.625 g/ha: 15.625 g ai/ha, evaluated after 13 days (100=total damage to plant; 0=no damage to plant), read-out: Barnyardgrass damage rating; for pest or weed control at 62.5 g/ha: 62.5 g ai/ha, read-out: Barnyardgrass damage rating (100=total damage to plant; 0=no damage to plant); for pest or weed control at 62.5 g/ha / pest or weed control at 250 g/ha: evaluated after 13 days; for pest or weed control at 250 g/ha: 250 g ai/ha, read-out: damage to plant, Barnyardgrass (100=total damage to plant; 0=no damage to plant)
In short: (§2)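 Scores run 0 (no damage) to 100 (total damage) and were taken 13 days after spraying. Plants had been raised in pots for 8 days under glasshouse control (24/16 °C, 14 h photoperiod, 65% humidity) and then treated at 15.625, 62.5 or 250 g/ha.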

[8] = test system: redroot pigweed (Amaranthus retroflexus); test: Test G Post-Emergence Protocol; details: Amaranthus retroflexus, post-emergence, 312 h; for pest or weed control at 15.625 g/ha: 15.625 g ai/ha, evaluated after 13 days (100=total damage to plant; 0=no damage to plant), read-out: Pigweed, Redroot damage rating; for pest or weed control at 62.5 g/ha: 62.5 g ai/ha, read-out: Pigweed, Redroot damage rating (100=total damage to plant; 0=no damage to plant); for pest or weed control at 62.5 g/ha / pest or weed control at 250 g/ha: evaluated after 13 days; for pest or weed control at 250 g/ha: 250 g ai/ha, read-out: damage to plant, Pigweed, Redroot (100=total damage to plant; 0=no damage to plant)
In short: as §2

[9] = test system: giant foxtail (Setaria faberi); test: Test G Post-Emergence Protocol; details: Setaria faberi, post-emergence, 312 h; for pest or weed control at 15.625 g/ha: 15.625 g ai/ha, evaluated after 13 days (100=total damage to plant; 0=no damage to plant), read-out: Foxtail, Giant damage rating; for pest or weed control at 62.5 g/ha: 62.5 g ai/ha, read-out: Foxtail, Giant damage rating (100=total damage to plant; 0=no damage to plant); for pest or weed control at 62.5 g/ha / pest or weed control at 250 g/ha: evaluated after 13 days; for pest or weed control at 250 g/ha: 250 g ai/ha, read-out: damage to plant, Foxtail, Giant (100=total damage to plant; 0=no damage to plant)
In short: as §2

[10] = test system: ivy-leaved morning glory (Ipomoea hederacea); test: Test G Post-Emergence Protocol; details: Ipomoea, post-emergence, 312 h; for pest or weed control at 15.625 g/ha: 15.625 g ai/ha, evaluated after 13 days (100=total damage to plant; 0=no damage to plant), read-out: Morningglory, Ivy-leaved damage rating; for pest or weed control at 62.5 g/ha: 62.5 g ai/ha, read-out: Morningglory, Ivy-leaved damage rating (100=total damage to plant; 0=no damage to plant); for pest or weed control at 62.5 g/ha / pest or weed control at 250 g/ha: evaluated after 13 days; for pest or weed control at 250 g/ha: 250 g ai/ha, read-out: damage to plant, Morningglory, Ivy-leaved (100=total damage to plant; 0=no damage to plant)
In short: as §2

[11] = test system: corn (Zea mays); test: Test G Post-Emergence Protocol; details: Zea mays, post-emergence, 312 h; for plant injury at 15.625 g/ha: 15.625 g ai/ha, evaluated after 13 days (100=total damage to plant; 0=no damage to plant), read-out: Corn damage rating; for plant injury at 62.5 g/ha: 62.5 g ai/ha, read-out: Corn damage rating (100=total damage to plant; 0=no damage to plant); for plant injury at 62.5 g/ha / plant injury at 250 g/ha: evaluated after 13 days; for plant injury at 250 g/ha: 250 g ai/ha, read-out: damage to plant, Corn (100=total damage to plant; 0=no damage to plant)
In short: as §2

[12] = test system: velvetleaf (Abutilon theophrasti); test: Test G Post-Emergence Protocol; details: Abutilon theophrasti, post-emergence, 312 h; for pest or weed control at 15.625 g/ha: 15.625 g ai/ha, evaluated after 13 days (100=total damage to plant; 0=no damage to plant), read-out: Velvetleaf damage rating; for pest or weed control at 62.5 g/ha: 62.5 g ai/ha, read-out: Velvetleaf damage rating (100=total damage to plant; 0=no damage to plant); for pest or weed control at 62.5 g/ha / pest or weed control at 250 g/ha: evaluated after 13 days; for pest or weed control at 250 g/ha: 250 g ai/ha, read-out: damage to plant, Velvetleaf (100=total damage to plant; 0=no damage to plant)
In short: as §2

Compound | pest or weed control at 15.625 g/ha [1] [%] | pest or weed control at 62.5 g/ha [1] [%] | pest or weed control at 250 g/ha [1] [%] | pest or weed control at 15.625 g/ha [2] [%] | pest or weed control at 62.5 g/ha [2] [%] | pest or weed control at 250 g/ha [2] [%] | pest or weed control at 15.625 g/ha [3] [%] | pest or weed control at 62.5 g/ha [3] [%] | pest or weed control at 250 g/ha [3] [%] | pest or weed control at 15.625 g/ha [4] [%] | pest or weed control at 62.5 g/ha [4] [%] | pest or weed control at 250 g/ha [4] [%] | plant injury at 15.625 g/ha [5] [%] | plant injury at 62.5 g/ha [5] [%] | plant injury at 250 g/ha [5] [%] | pest or weed control at 15.625 g/ha [6] [%] | pest or weed control at 62.5 g/ha [6] [%] | pest or weed control at 250 g/ha [6] [%] | pest or weed control at 15.625 g/ha [7] [%] | pest or weed control at 62.5 g/ha [7] [%] | other results
CN1C[C@H](c2ccc(C(F)F)cc2)[C@@H](C(=O)Nc2ccccc2F)C1=O (racemic) [Compound 1454] | 20 | 60 | 70 | 0 | 0 | 70 | 50 | 70 | 90 | 20 | 10 | 10 | 0 | 10 | 60 | 0 | 20 | 60 | 0 | 20 | pest or weed control at 250 g/ha [7]: 20%; pest or weed control at 15.625 g/ha [8]: 0%; pest or weed control at 62.5 g/ha [8]: 20%; pest or weed control at 250 g/ha [8]: 20%; pest or weed control at 15.625 g/ha [9]: 30%; pest or weed control at 62.5 g/ha [9]: 60%; pest or weed control at 250 g/ha [9]: 60%; pest or weed control at 15.625 g/ha [10]: 10%; pest or weed control at 62.5 g/ha [10]: 10%; pest or weed control at 250 g/ha [10]: 10%; plant injury at 15.625 g/ha [11]: 10%; plant injury at 62.5 g/ha [11]: 20%; plant injury at 250 g/ha [11]: 30%; pest or weed control at 15.625 g/ha [12]: 0%; pest or weed control at 62.5 g/ha [12]: 0%; pest or weed control at 250 g/ha [12]: 10%
CSc1nnc(NC(=O)[C@@H]2C(=O)N(C)C[C@H]2c2ccc(C(F)(F)F)cc2)[nH]1 (racemic) [Compound 1603] | 0 | 0 | 0 | 0 | 0 | 0 | 0 | 0 | 0 | 0 | 0 | 0 | 0 | 0 | 0 | 0 | 0 | 0 | 0 | 0 | pest or weed control at 250 g/ha [7]: 0%; pest or weed control at 15.625 g/ha [8]: 0%; pest or weed control at 62.5 g/ha [8]: 0%; pest or weed control at 250 g/ha [8]: 0%; pest or weed control at 15.625 g/ha [9]: 0%; pest or weed control at 62.5 g/ha [9]: 0%; pest or weed control at 250 g/ha [9]: 0%; pest or weed control at 15.625 g/ha [10]: 0%; pest or weed control at 62.5 g/ha [10]: 0%; pest or weed control at 250 g/ha [10]: 0%; plant injury at 15.625 g/ha [11]: 0%; plant injury at 62.5 g/ha [11]: 0%; plant injury at 250 g/ha [11]: 0%; pest or weed control at 15.625 g/ha [12]: 0%; pest or weed control at 62.5 g/ha [12]: 0%; pest or weed control at 250 g/ha [12]: 0%
